Patent publication US20130005747A1, “METHOD FOR SELECTING A CANCER THERAPY” (Cyclacel Limited, priority 2010, published 2013)

Tests used:
Experiment in all cases: Fractional growth, 72 h seliciclib
Type in all cases: cell-based, human
HPAF-II = HPAF-II (Pancreas), 15 μM seliciclib
Excerpt: (§1) A total of 270 human cancer cell lines from diverse cancer histopathologic types were investigated.

COLO-680N = COLO-680N (Esophagus), 15 μM seliciclib
Excerpt: as §1

769-P = 769-P (Kidney), 15 μM seliciclib
Excerpt: as §1

OVCAR-5 = OVCAR-5 (Ovary), 15 μM seliciclib
Excerpt: as §1

SISO = SISO (Cervix), 15 μM seliciclib
Excerpt: as §1

NCI-H1793 = NCI-H1793 (Lung: NSCLC), 15 μM seliciclib
Excerpt: as §1

A2058 = A2058 (Skin), 15 μM seliciclib
Excerpt: as §1

RCM-1 = RCM-1 (Intestine), 15 μM seliciclib
Excerpt: as §1

A673 = A673 (Muscle), 15 μM seliciclib
Excerpt: as §1

RERF-LC-Sq1 = RERF-LC-Sq1 (Lung: NSCLC), 15 μM seliciclib
Excerpt: as §1

G-401 = G-401 (Kidney), 15 μM seliciclib
Excerpt: as §1

LU65A = LU65A (Lung: NSCLC), 15 μM seliciclib
Excerpt: as §1

AZ-521 = AZ-521 (Stomach), 15 μM seliciclib
Excerpt: as §1

SW756 = SW756 (Cervix), 15 μM seliciclib
Excerpt: as §1

WM-115 = WM-115 (Skin), 15 μM seliciclib
Excerpt: as §1

MG-63 = MG-63 (Bone), 15 μM seliciclib
Excerpt: as §1

CS1R = CS1R (Bone), 15 μM seliciclib
Excerpt: as §1

NCI-H2228 = NCI-H2228 (Lung: NSCLC), 15 μM seliciclib
Excerpt: as §1

PC-14 = PC-14 (Lung: NSCLC), 15 μM seliciclib
Excerpt: as §1

ABC-1 = ABC-1 (Lung: NSCLC), 15 μM seliciclib
Excerpt: as §1

Detroit 562 = Detroit 562 (Head & Neck), 15 μM seliciclib
Excerpt: as §1

AU565 = AU565 (Breast), 15 μM seliciclib
Excerpt: as §1

HSC-2 = HSC-2 (Head & Neck), 15 μM seliciclib
Excerpt: as §1

AGS = AGS (Stomach), 15 μM seliciclib
Excerpt: as §1

PA-TU-8988S = PA-TU-8988S (Pancreas), 15 μM seliciclib
Excerpt: as §1

NCI-H1573 = NCI-H1573 (Lung: NSCLC), 15 μM seliciclib
Excerpt: as §1

HeLa = HeLa (Cervix), 15 μM seliciclib
Excerpt: as §1

SHP-77 = SHP-77 (Lung), 15 μM seliciclib
Excerpt: as §1

Ca Ski = Ca Ski (Cervix), 15 μM seliciclib
Excerpt: as §1

SNU-398 = SNU-398 (Liver), 15 μM seliciclib
Excerpt: as §1

JHU-022 = JHU-022 (Head & Neck), 15 μM seliciclib
Excerpt: as §1

OVCAR-8 = OVCAR-8 (Ovary), 15 μM seliciclib
Excerpt: as §1

M-14 = M-14 (Skin), 15 μM seliciclib
Excerpt: as §1

T98G = T98G (Brain), 15 μM seliciclib
Excerpt: as §1

KYSE-510 = KYSE-510 (Esophagus), 15 μM seliciclib
Excerpt: as §1

HO-1-u-1 = HO-1-u-1 (Head & Neck), 15 μM seliciclib
Excerpt: as §1

PCI-6B = PCI-6B (Head & Neck), 15 μM seliciclib
Excerpt: as §1

`CC[C@H](CO)Nc1nc(NCc2ccccc2)c2ncn(C(C)C)c2n1` [seliciclib, roscovitine] was tested, and the “Fractional Growth” value (HPAF-II) was 0.4628, the “Fractional Growth” value (COLO-680N) was 0.6838 and the “Fractional Growth” value (769-P) was 0.602. For the same compound, the “Fractional Growth” value (OVCAR-5) was 0.4053, the “Fractional Growth” value (SISO) was 0.6424 and the “Fractional Growth” value (NCI-H1793) was 0.6274. The “Fractional Growth” value (A2058) was 0.6341, the “Fractional Growth” value (RCM-1) was 0.6689 and the “Fractional Growth” value (A673) was 0.4111. The “Fractional Growth” value (RERF-LC-Sq1) was 0.6428, the “Fractional Growth” value (G-401) was 0.3542 and the “Fractional Growth” value (LU65A) was 0.4627. For the same compound, the “Fractional Growth” value (AZ-521) was 0.5115, the “Fractional Growth” value (SW756) was 0.6484 and the “Fractional Growth” value (WM-115) was 0.5068. For the same compound, the “Fractional Growth” value (MG-63) was 0.5484, the “Fractional Growth” value (CS1R) was 0.2923 and the “Fractional Growth” value (NCI-H2228) was 0.6493. The “Fractional Growth” value (PC-14) was 0.5776, the “Fractional Growth” value (ABC-1) was 0.6543 and the “Fractional Growth” value (Detroit 562) was 0.1846. The “Fractional Growth” value (AU565) was 0.4762, the “Fractional Growth” value (HSC-2) was 0.5464 and the “Fractional Growth” value (AGS) was 0.2157. The “Fractional Growth” value (PA-TU-8988S) was 0.5791, the “Fractional Growth” value (NCI-H1573) was 0.5485 and the “Fractional Growth” value (HeLa) was 0.9192. For the same compound, the “Fractional Growth” value (SHP-77) was 0.617, the “Fractional Growth” value (Ca Ski) was 0.591 and the “Fractional Growth” value (SNU-398) was 0.0473. For the same compound, the “Fractional Growth” value (JHU-022) was 0.6294, the “Fractional Growth” value (OVCAR-8) was 0.5886 and the “Fractional Growth” value (M-14) was 0.3765. The “Fractional Growth” value (T98G) was 0.4404, the “Fractional Growth” value (KYSE-510) was 0.4141 and the “Fractional Growth” value (HO-1-u-1) was 0.4858. The “Fractional Growth” value (PCI-6B) was 0.5328.
